Reference: patent US20210128537A1, “T-TYPE CALCIUM CHANNEL MODULATORS AND METHODS OF USE THEREOF” (Praxis Precision Medicines, inc., priority 2016, published 2021)

Experiments:
post-SE rats = assay: Sucrose preference test in post-SE rats; format: in vivo, rat; details: Z944 60 mg/kg/day for 4 weeks, p<0.05
Protocol: All behavioural tests were performed in a light-controlled (˜110 lux), closed, quiet and clean room in the. Behavioural testing was performed in a blinded manner to the treatment groups. All of the behavioural tests were video recorded for future analysis. OF, EPM and MWM sessions were filmed using a digital camera mounted above the centre of the arena, which was connected to a computer for the recording and objective analysis of digitized behavioural tests (EthoVision 3.0.15, Noldus). The first behavioural test was performed one week after the last EEG recording. The different behavioural tests/session were performed 24 hours apart from each other. All tests were scored by an experienced observer who was blind to the experimental conditions of the animals.
The SPT was used to assess depressive-like behaviour. The animals remained to stay in their same home cage. One hour before the start of the test, the animals were given up to 0.5 ml of the testing 2% sucrose to ensure that the animals would drink the sucrose solution. The animals were presented with two bottles, one filled with water and the other one filled with 2% sucrose in water for 24 hours. On both tests, bottle position was randomised to avoid position preference. Total fluid intake and percentage preference for sucrose were recorded.

fully kindled rats = assay: Amygdala kindling model, anti-seizure testing in fully kindled rats; format: in vivo, rat
Protocol: (§1) Animals were implanted with EEG recording electrodes and with a stimulating bipolar electrode in the left basolateral amygdaloid nucleus using the coordinates AP±3.0 mm, ML±5.9 mm, DV±6.0 mm. The after discharge threshold (ADT) for each animal was determined by administering a stimulation (frequency=60.1 Hz; duration=1000 μs) at one minute intervals until a seizure was clicited. The amplitude of the stimulation was started at 0.02 mA with increments of 0.02 mA; the stimulations were stopped when the animal experienced a seizure of ≥6 second duration, or if the amplitude of 0.40 mA was reached without the occurrence of a seizure. […] Kindling was performed twice a day for five days per week with an endpoint of 30 stimulations or until the animal presented five class V seizures (referred to as fully kindled). The seizure severity was classified from 0 (less severe) to V (most severe) according to the Racine Scale (Racine, 1972b). Sham kindled animals were handled the same way as the kindled animals, although no electrical stimulation was applied. An animal is classified as fully kindled once it has experienced 5 class V seizures.
Drug testing was performed twice a week until all animals had received each of the seven treatments, Z944 (5 mg/kg, 10 mg/kg, 30 mg/kg and 100 mg/kg), vehicle (10% DMSO/90% Na^+-CMC or CBZ vehicle 20% DMSO/40% propylene glycol/40% saline), ETX (100 mg/kg) or CBZ (30 mg/kg). Prior to drug testing each day, animals were subjected to a maximum of three pre-drug stimulations 30 minutes apart. The animals qualified for testing on that particular day if a class IV or V seizure was elicited in at least 2 out of 3 pre-drug stimulations. Stimulations consisted of a 1 second train of 1 ms biphasic square wave pulses at a frequency of 60 Hz with current amplitude based on each animal ADT that elicited a seizure. Thirty minutes after the last pre-drug stimulation, the animals received an IP injection of one of the seven treatments in a randomized manner at a dose volume of 5 ml/kg. Six post-drug stimulations were administered to each animal, the first stimulation was given 15 minutes post drug injection (to allow brain penetration of the drugs) and the following five stimulations were delivered in 30 minutes intervals thereafter with the seizure class elicited being recorded after each post-drug stimulation. The duration of the primary and total seizures, if any, were recorded. An investigator blinded to the drug treatment analyzed all EEG recordings. Primary after discharge is the duration of the seizure elicited from the kindling stimulation. Total after discharge is the total seizure duration including any secondary seizures that occur after the primary after discharge. Primary after discharge duration and total seizure duration were recorded and averaged for the 6 post-drug stimulations.
Animal weight and behaviour when handled were monitored for the duration of the experimental period. Additionally, animals were assessed by observation for any adverse effects of drugs on grooming, fur appearance, gait, and excretion.

[1] = tested on: GAERS nRT T-type Ca2+ channel currents (mixed CaV3.2/CaV3.3 current); assay: Thalamic slice whole-cell voltage-clamp recordings of nRT T-type Ca2+ channel currents; format: cell-based, rat; parameters: dose or concentration left out as unconfirmed; details: and wash off
[2] = tested on: Wistar rats, amygdala kindling; assay: Progression of seizures in the amygdala kindling model; format: in vivo, rat
Protocol: as §1
Testing Z944 in the progression of seizures in the amygdala kindling model Wistar rats underwent surgery to implant bipolar stimulation electrodes and EEG recording electrodes as described above. ADT was determined as described for the anti-seizure study. Animals were randomly assigned to four different cohorts; Cohort 1: kindled sham+vehicle (n=8); Cohort 2: kindled+vehicle (n=6); Cohort 3: kindled+ETX (100 mg/kg, n=6) and Cohort 4: kindled+Z944 (30 mg/kg, n=7). Thirty minutes prior each kindling stimulation, the animals received an IP injection of vehicle, ETX, or Z944 administered at a dose volume of 5 ml/kg up to an endpoint of 30 stimulations and the seizure class elicited and seizure duration was recorded. […] Adverse effects were recorded every 15 minutes from the drug administration until 90 minutes after. An investigator blinded to the drug treatment analyzed all EEG recordings. The seizure class each stimulation elicited was recorded and averaged and the duration of the primary and total seizures were recorded.

## CC(C)(C)NC(=O)CN1CCC(CNC(=O)c2cc(F)cc(Cl)c2)CC1 [Z944]
post-SE rats
  sucrose preference: vehicle had a reduced sucrose preference compared to both sham groups and post-SE+Z944 group
Fully kindled rats; IP, Z944 5, 10, 30, 100 mg/kg, CBZ 30 mg/kg, compared to vehicle
  seizure class elicited (Racine scale): does not suppress seizures
Fully kindled rats; IP, all four doses of Z944, ETX 100 mg/kg, CBZ 30 mg/kg, compared to vehicle (p>0.5)
  primary after discharge: did not affect the primary after discharge
Fully kindled rats; Z944 100 mg/kg, CBZ 30 mg/kg IP, p<0.01
  adverse effects (sedation scale 0-4) compared to vehicle: significantly higher adverse effects
Fully kindled rats; Z944 5 to 100 mg/kg IP
  adverse effects (sedation scale 0-4), dose dependence: dose dependent
[1]
  reversibility of inhibition of GAERS nRT T-type Ca2+ channel currents: nonreversible inhibition
[2]; 30 mg/kg IP 30 min prior each stimulation, vs vehicle
  number of stimulations to evoke a class III, IV or V seizure: required significantly more stimulations
[2]; 30 mg/kg IP, n=7, up to 30 stimulations
  number of treated animals that reached the fully kindled state: one
[2]; 30 mg/kg IP, vs ETX 100 mg/kg (p<0.01)
  number of stimulations to reach class V: required more stimulations
[2]; 30 mg/kg IP, vs vehicle (p<0.01) and ETX (p<0.05)
  number of stimulations to reach the fully kindled state: required significantly more stimulations
